Data: the NIST ThermoML archive (doi:10.1021/acs.jced.7b00106)

Conditions: Hot wire method

FC(F)(F)/C=C/Cl [(E)-1-chloro-3,3,3-trifluoroprop-1-ene]
Conditions	thermal conductivity [W/m/K]
423.65 K, 7612 kPa, Liquid	0.05622
423.65 K, 7619 kPa, Liquid	0.05627
423.65 K, 22720 kPa, Liquid	0.06706
423.66 K, 22716 kPa, Liquid	0.06723
423.67 K, 28114 kPa, Liquid	0.07024
423.69 K, 28097 kPa, Liquid	0.07022
423.72 K, 13391 kPa, Liquid	0.0611
423.72 K, 13398 kPa, Liquid	0.06111
423.77 K, 20045 kPa, Liquid	0.06561
423.77 K, 20052 kPa, Liquid	0.06562
423.78 K, 11664 kPa, Liquid	0.05978
423.79 K, 11674 kPa, Liquid	0.05981
423.83 K, 25690 kPa, Liquid	0.06889
423.84 K, 25696 kPa, Liquid	0.06888
423.85 K, 10139 kPa, Liquid	0.05851
423.86 K, 10145 kPa, Liquid	0.05848
423.86 K, 17471 kPa, Liquid	0.06395
423.87 K, 17475 kPa, Liquid	0.06396
423.93 K, 15376 kPa, Liquid	0.06253
423.93 K, 15379 kPa, Liquid	0.06254
423.94 K, 22691 kPa, Liquid	0.06716
423.95 K, 22710 kPa, Liquid	0.06724
424.02 K, 13386 kPa, Liquid	0.06109
424.02 K, 13393 kPa, Liquid	0.06113
451.03 K, 4240 kPa, Fluid (supercritical or subcritical phases)	0.04303
451.04 K, 4194 kPa, Fluid (supercritical or subcritical phases)	0.04141
451.04 K, 4285 kPa, Fluid (supercritical or subcritical phases)	0.0443
451.05 K, 4194 kPa, Fluid (supercritical or subcritical phases)	0.04138
451.05 K, 4285 kPa, Fluid (supercritical or subcritical phases)	0.04428
451.1 K, 4194 kPa, Fluid (supercritical or subcritical phases)	0.0413
451.11 K, 4329 kPa, Fluid (supercritical or subcritical phases)	0.04555
451.12 K, 4329 kPa, Fluid (supercritical or subcritical phases)	0.04569
451.13 K, 4146 kPa, Fluid (supercritical or subcritical phases)	0.03927
451.14 K, 4146 kPa, Fluid (supercritical or subcritical phases)	0.03925
451.15 K, 4091 kPa, Fluid (supercritical or subcritical phases)	0.03775
451.19 K, 4240 kPa, Fluid (supercritical or subcritical phases)	0.0441
451.2 K, 4146 kPa, Fluid (supercritical or subcritical phases)	0.03962
451.2 K, 4240 kPa, Fluid (supercritical or subcritical phases)	0.04407
451.21 K, 4024 kPa, Fluid (supercritical or subcritical phases)	0.03539
451.21 K, 4146 kPa, Fluid (supercritical or subcritical phases)	0.03961
451.21 K, 4329 kPa, Fluid (supercritical or subcritical phases)	0.0465
451.22 K, 4091 kPa, Fluid (supercritical or subcritical phases)	0.03768
451.22 K, 4285 kPa, Fluid (supercritical or subcritical phases)	0.04586
451.22 K, 4329 kPa, Fluid (supercritical or subcritical phases)	0.04642
451.24 K, 4335 kPa, Fluid (supercritical or subcritical phases)	0.04596
451.24 K, 4404 kPa, Fluid (supercritical or subcritical phases)	0.04602
451.25 K, 4146 kPa, Fluid (supercritical or subcritical phases)	0.03998
451.25 K, 4335 kPa, Fluid (supercritical or subcritical phases)	0.04625
451.25 K, 4404 kPa, Fluid (supercritical or subcritical phases)	0.04634
451.26 K, 3939 kPa, Fluid (supercritical or subcritical phases)	0.03353
451.27 K, 4025 kPa, Fluid (supercritical or subcritical phases)	0.03578
451.28 K, 4024 kPa, Fluid (supercritical or subcritical phases)	0.03519
451.28 K, 4091 kPa, Fluid (supercritical or subcritical phases)	0.03788
451.29 K, 4090 kPa, Fluid (supercritical or subcritical phases)	0.0379
451.3 K, 4146 kPa, Fluid (supercritical or subcritical phases)	0.04026
451.31 K, 4146 kPa, Fluid (supercritical or subcritical phases)	0.04022
451.32 K, 3831 kPa, Fluid (supercritical or subcritical phases)	0.03175
451.35 K, 3691 kPa, Fluid (supercritical or subcritical phases)	0.02988
451.35 K, 4024 kPa, Fluid (supercritical or subcritical phases)	0.03573
451.35 K, 4025 kPa, Fluid (supercritical or subcritical phases)	0.03528
451.35 K, 4091 kPa, Fluid (supercritical or subcritical phases)	0.0383
451.36 K, 3691 kPa, Fluid (supercritical or subcritical phases)	0.02992
451.36 K, 4091 kPa, Fluid (supercritical or subcritical phases)	0.03832
451.37 K, 4404 kPa, Fluid (supercritical or subcritical phases)	0.04741
451.38 K, 3649 kPa, Fluid (supercritical or subcritical phases)	0.02977
451.39 K, 3831 kPa, Fluid (supercritical or subcritical phases)	0.03167
451.4 K, 3831 kPa, Fluid (supercritical or subcritical phases)	0.03184
451.41 K, 3939 kPa, Fluid (supercritical or subcritical phases)	0.03376
451.42 K, 3508 kPa, Fluid (supercritical or subcritical phases)	0.02833
451.43 K, 3509 kPa, Fluid (supercritical or subcritical phases)	0.02845
451.44 K, 3691 kPa, Fluid (supercritical or subcritical phases)	0.02982
451.44 K, 4090 kPa, Fluid (supercritical or subcritical phases)	0.03859
